Source: US20260297070A1, “CYCLIC [COMPOUND LEFT OUT] WRN INHIBITORS” (Nimbus Wadjet, Inc., priority 2023, published 2026)

What follows are molecules tested against T1, human Werner helicase (WRN-BV08, Uniprot Q14191, amino acids 517-1235 with L1074F point mutation) (Homo sapiens, UniProt Q14191, L1074F) (assay: WRN (BV08) ADP-Glo Assay). Details: 0.15 nM WRN, 5 μM ATP, 0.1 nM DNA duplex, 15 min preincubation, 60 min at 25° C., pH 7.5, 1% DMSO; read-out: ADP-Glo_hWRN_IC50.
T1 construct: Uniprot Q14191, amino acids 517-1235 with L1074F point mutation; TEV-cleavable 8×His (C, cleaved yes); made in house; host or cells: Sf9 insect cells (baculovirus)
Type: biochemical
How it was run: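 Helicase ATPase activity is measured at 25 °C over 60 min using 0.15 nM enzyme, 5 μM ATP and 0.1 nM DNA duplex, final DMSO 1%. ADP production is detected by luminescence, with IC50 derived by curve fitting.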

T1 sequence (Q14191 with tags, fused parts or gaps L1074F limits assumed): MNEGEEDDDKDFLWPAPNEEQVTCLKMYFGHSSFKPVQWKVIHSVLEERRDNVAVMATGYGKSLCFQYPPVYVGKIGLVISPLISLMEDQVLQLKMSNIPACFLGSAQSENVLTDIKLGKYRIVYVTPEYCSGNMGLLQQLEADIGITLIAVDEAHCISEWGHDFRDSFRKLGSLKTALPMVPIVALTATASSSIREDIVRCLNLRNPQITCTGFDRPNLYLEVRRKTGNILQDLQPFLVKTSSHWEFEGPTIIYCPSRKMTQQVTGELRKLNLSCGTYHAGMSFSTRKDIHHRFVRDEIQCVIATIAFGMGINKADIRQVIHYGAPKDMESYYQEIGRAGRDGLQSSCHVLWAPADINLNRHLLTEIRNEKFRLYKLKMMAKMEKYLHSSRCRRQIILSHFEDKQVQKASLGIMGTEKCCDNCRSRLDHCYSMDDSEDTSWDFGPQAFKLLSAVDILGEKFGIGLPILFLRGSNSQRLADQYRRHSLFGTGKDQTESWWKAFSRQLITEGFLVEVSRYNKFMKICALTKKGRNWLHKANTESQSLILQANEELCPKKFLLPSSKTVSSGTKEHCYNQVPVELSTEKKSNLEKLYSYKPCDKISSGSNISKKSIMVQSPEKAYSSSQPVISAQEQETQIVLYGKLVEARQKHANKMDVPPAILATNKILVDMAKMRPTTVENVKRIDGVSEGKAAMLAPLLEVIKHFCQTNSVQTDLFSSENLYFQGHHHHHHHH

Row | IC50 | Structure (SMILES)
1 | 0.5 to 5 µM | O=C(Cc1ccc(-c2ccc(F)cc2)cc1)N(Cc1ccncc1)C1C=CS(=O)(=O)C1 (stereo not drawn) [I-200, N-(1,1-dioxo-2,3-dihydro-1lambda6-thiophen-3-yl)-2-{4′-fluoro-[1,1′-biphenyl]-4-yl}-N-[(pyridin-4-yl)methyl]acetamide]
2 | 0.5 to 5 µM | O=C(Cc1ccc(-n2cccc2)cc1)N(Cc1cccc(Cl)c1)C1C=CS(=O)(=O)C1 (stereo not drawn) [I-201, N-[(3-chlorophenyl)methyl]-N-(1,1-dioxo-2,3-dihydro-1lambda6-thiophen-3-yl)-2-[4-(1H-pyrrol-1-yl)phenyl]acetamide]
3 | 0.5 to 5 µM | COc1cc(CN(C(=O)Cc2ccc(-n3cccc3C)cc2F)C2C=CS(=O)(=O)C2)nc(OC)c1 (stereo not drawn) [I-202, N-[(4,6-dimethoxypyridin-2-yl)methyl]-N-(1,1-dioxo-2,3-dihydro-1lambda6-thiophen-3-yl)-2-[2-fluoro-4-(2-methyl-1H-pyrrol-1-yl)phenyl]acetamide]
4 | 0.5 to 5 µM | O=C(Cc1ccc(-c2ccc(F)cc2F)cc1)N(Cc1ccncc1)C1C=CS(=O)(=O)C1 (stereo not drawn) [I-203, 2-{2′,4′-difluoro-[1,1′-biphenyl]-4-yl}-N-(1,1-dioxo-2,3-dihydro-1lambda6-thiophen-3-yl)-N-[(pyridin-4-yl)methyl]acetamide]
5 | 0.5 to 5 µM | CCc1cccn1-c1ccc(CC(=O)N(Cc2ccnc(OC)c2)C2C=CS(=O)(=O)C2)c(F)c1 (stereo not drawn) [I-204, N-(1,1-dioxo-2,3-dihydro-1lambda6-thiophen-3-yl)-2-[4-(2-ethyl-1H-pyrrol-1-yl)-2-fluorophenyl]-N-[(2-methoxypyridin-4-yl)methyl]acetamide]
6 | 0.5 to 5 µM | O=C(Cc1ncc(-c2ccc(F)cc2)cc1F)N(Cc1ccncc1)C1C=CS(=O)(=O)C1 (stereo not drawn) [I-205, N-(1,1-dioxo-2,3-dihydro-1lambda6-thiophen-3-yl)-2-[3-fluoro-5-(4-fluorophenyl)pyridin-2-yl]-N-[(pyridin-4-yl)methyl]acetamide]
7 | 0.5 to 5 µM | Cc1cccn1-c1ccc(CC(=O)N(Cc2ccncc2)C2C=CS(=O)(=O)C2)cc1 (stereo not drawn) [I-206, N-(1,1-dioxo-2,3-dihydro-1lambda6-thiophen-3-yl)-2-[4-(2-methyl-1H-pyrrol-1-yl)phenyl]-N-[(pyridin-4-yl)methyl]acetamide]
8 | 0.5 to 5 µM | Cc1cc(CN(C(=O)Cc2ccc(-n3cccc3)cc2)C2C=CS(=O)(=O)C2)ccn1 (stereo not drawn) [I-207, N-(1,1-dioxo-2,3-dihydro-1lambda6-thiophen-3-yl)-N-[(2-methylpyridin-4-yl)methyl]-2-[4-(1H-pyrrol-1-yl)phenyl]acetamide]
9 | 0.5 to 5 µM | O=C(Cc1ccc(-n2cccc2)cc1Cl)N(Cc1ccncc1)C1C=CS(=O)(=O)C1 (stereo not drawn) [I-208, 2-[2-chloro-4-(1H-pyrrol-1-yl)phenyl]-N-(1,1-dioxo-2,3-dihydro-1lambda6-thiophen-3-yl)-N-[(pyridin-4-yl)methyl]acetamide]
10 | 0.5 to 5 µM | COC(C(=O)N(Cc1ccnc(C(C)(C)O)c1)C1C=CS(=O)(=O)C1)c1ccc(C(F)(F)F)cc1 (stereo not drawn) [I-209, N-(1,1-dioxo-2,3-dihydro-1lambda6-thiophen-3-yl)-N-{[2-(2-hydroxypropan-2-yl)pyridin-4-yl]methyl}-2-methoxy-2-[4-(trifluoromethyl)phenyl]acetamide]
11 | 0.5 to 5 µM | O=C(Cc1ccc(-n2cccc2)cc1)N(Cc1ccc2ccccc2n1)C1C=CS(=O)(=O)C1 (stereo not drawn) [I-210, N-(1,1-dioxo-2,3-dihydro-1lambda6-thiophen-3-yl)-2-[4-(1H-pyrrol-1-yl)phenyl]-N-[(quinolin-2-yl)methyl]acetamide]
12 | 0.5 to 5 µM | C#CCCCC(=O)N1CCN(Cc2ccc(CN(C(=O)Cc3ccc(-n4cccc4)cc3F)C3C=CS(=O)(=O)C3)cc2)CC1 (stereo not drawn) [I-211, N-(1,1-dioxo-2,3-dihydro-1lambda6-thiophen-3-yl)-2-[2-fluoro-4-(1H-pyrrol-1-yl)phenyl]-N-[(4-{[4-(hex-5-ynoyl)piperazin-1-yl]methyl}phenyl)methyl]acetamide]
13 | 0.5 to 5 µM | COc1cc(CN(C(=O)C(C)c2ccc(-n3cccc3)cc2)C2C=CS(=O)(=O)C2)ccn1 (stereo not drawn) [I-212, N-(1,1-dioxo-2,3-dihydro-1lambda6-thiophen-3-yl)-N-[(2-methoxypyridin-4-yl)methyl]-2-[4-(1H-pyrrol-1-yl)phenyl]propanamide]
14 | 0.5 to 5 µM | C#CCCCC(=O)N1CCN(c2ccc(CN(C(=O)Cc3ccc(-n4cccc4)cc3F)C3C=CS(=O)(=O)C3)cc2)CC1 (stereo not drawn) [I-213, N-(1,1-dioxo-2,3-dihydro-1lambda6-thiophen-3-yl)-2-[2-fluoro-4-(1H-pyrrol-1-yl)phenyl]-N-({4-[4-(hex-5-ynoyl)piperazin-1-yl]phenyl}methyl)acetamide]
15 | 0.5 to 5 µM | O=C(Cc1ccc(-n2cccc2)cc1)N(Cc1ccnc(OC(F)F)c1)C1C=CS(=O)(=O)C1 (stereo not drawn) [I-215, N-{[2-(difluoromethoxy)pyridin-4-yl]methyl}-N-(1,1-dioxo-2,3-dihydro-1lambda6-thiophen-3-yl)-2-[4-(1H-pyrrol-1-yl)phenyl]acetamide]
16 | 5 to 10 µM | CCC(C)c1ccc(CC(=O)N(Cc2ccncc2)C2C=CS(=O)(=O)C2)cc1 (stereo not drawn) [I-216, 2-[4-(butan-2-yl)phenyl]-N-(1,1-dioxo-2,3-dihydro-1lambda6-thiophen-3-yl)-N-[(pyridin-4-yl)methyl]acetamide]
17 | 0.5 to 5 µM | O=C(Cc1ccc(C2CCCC2)cc1)N(Cc1ccncc1)C1C=CS(=O)(=O)C1 (stereo not drawn) [I-217, 2-(4-cyclopentylphenyl)-N-(1,1-dioxo-2,3-dihydro-1lambda6-thiophen-3-yl)-N-[(pyridin-4-yl)methyl]acetamide]
18 | 5 to 10 µM | O=C(C(C(=O)N(Cc1ccncc1)C1C=CS(=O)(=O)C1)c1ccc(-c2ccc(F)cc2)cc1)N1CCOCC1 (stereo not drawn) [I-218, N-(1,1-dioxo-2,3-dihydro-1lambda6-thiophen-3-yl)-2-{4′-fluoro-[1,1′-biphenyl]-4-yl}-3-(morpholin-4-yl)-3-oxo-N-[(pyridin-4-yl)methyl]propanamide]
19 | 5 to 10 µM | COc1ccc(CN(C(=O)Cc2ccc(-n3cccc3)cc2)C2C=CS(=O)(=O)C2)cc1 (stereo not drawn) [I-219, N-(1,1-dioxo-2,3-dihydro-1lambda6-thiophen-3-yl)-N-[(4-methoxyphenyl)methyl]-2-[4-(1H-pyrrol-1-yl)phenyl]acetamide]
20 | 5 to 10 µM | O=C(Cc1ccc2cc(Br)ccc2c1)N(Cc1ccncc1)C1C=CS(=O)(=O)C1 (stereo not drawn) [I-220, 2-(6-bromonaphthalen-2-yl)-N-(1,1-dioxo-2,3-dihydro-1lambda6-thiophen-3-yl)-N-[(pyridin-4-yl)methyl]acetamide]
21 | 0.5 to 5 µM | O=C(Cc1ccc(-n2cccc2)cc1)N(Cc1cccc(F)c1F)C1C=CS(=O)(=O)C1 (stereo not drawn) [I-221, N-[(2,3-difluorophenyl)methyl]-N-(1,1-dioxo-2,3-dihydro-1lambda6-thiophen-3-yl)-2-[4-(1H-pyrrol-1-yl)phenyl]acetamide]
22 | 5 to 10 µM | O=C(Cc1ccc(-n2cccc2)cc1)N(Cc1ccc2ncccc2c1)C1C=CS(=O)(=O)C1 (stereo not drawn) [I-222, N-(1,1-dioxo-2,3-dihydro-1lambda6-thiophen-3-yl)-2-[4-(1H-pyrrol-1-yl)phenyl]-N-[(quinolin-6-yl)methyl]acetamide]
23 | 5 to 10 µM | CC(C)(O)c1cc(CN(C(=O)C2Cc3cc(-c4ccc(F)cc4)ccc32)C2C=CS(=O)(=O)C2)ccn1 (stereo not drawn) [I-223, N-(1,1-dioxo-2,3-dihydro-1lambda6-thiophen-3-yl)-3-(4-fluorophenyl)-N-{[2-(2-hydroxypropan-2-yl)pyridin-4-yl]methyl}bicyclo[4.2.0]octa-1,3,5-triene-7-carboxamide]
24 | 5 to 10 µM | Cc1cccn1-c1ccc(CC(=O)N(Cc2cccnn2)C2C=CS(=O)(=O)C2)c(F)c1 (stereo not drawn) [I-224, N-(1,1-dioxo-2,3-dihydro-1lambda6-thiophen-3-yl)-2-[2-fluoro-4-(2-methyl-1H-pyrrol-1-yl)phenyl]-N-[(pyridazin-3-yl)methyl]acetamide]
25 | 5 to 10 µM | O=C(Cc1ccc(-n2cccc2)cc1)N(Cc1ccc2c(c1)OCO2)C1C=CS(=O)(=O)C1 (stereo not drawn) [I-225, N-[(2H-1,3-benzodioxol-5-yl)methyl]-N-(1,1-dioxo-2,3-dihydro-1lambda6-thiophen-3-yl)-2-[4-(1H-pyrrol-1-yl)phenyl]acetamide]
26 | 5 to 10 µM | Cn1ncc2cc(CN(C(=O)Cc3ccc(-n4cccc4)cc3)C3C=CS(=O)(=O)C3)ccc21 (stereo not drawn) [I-226, N-(1,1-dioxo-2,3-dihydro-1lambda6-thiophen-3-yl)-N-[(1-methyl-1H-indazol-5-yl)methyl]-2-[4-(1H-pyrrol-1-yl)phenyl]acetamide]
27 | 5 to 10 µM | Cc1cc(-c2ccc(F)cc2)ccc1CC(=O)N(Cc1ccncc1)C1C=CS(=O)(=O)C1 (stereo not drawn) [I-227, N-(1,1-dioxo-2,3-dihydro-1lambda6-thiophen-3-yl)-2-{4′-fluoro-3-methyl-[1,1′-biphenyl]-4-yl}-N-[(pyridin-4-yl)methyl]acetamide]
28 | 5 to 10 µM | O=C(Cc1ccc(-n2cccc2)cc1)N(Cc1ccncc1Cl)C1C=CS(=O)(=O)C1 (stereo not drawn) [I-228, N-[(3-chloropyridin-4-yl)methyl]-N-(1,1-dioxo-2,3-dihydro-1lambda6-thiophen-3-yl)-2-[4-(1H-pyrrol-1-yl)phenyl]acetamide]
29 | 5 to 10 µM | C#CCCCC(=O)N1CCN(C(=O)c2ccc(CN(C(=O)Cc3ccc(-n4cccc4)cc3F)C3C=CS(=O)(=O)C3)cc2)CC1 (stereo not drawn) [I-229, N-(1,1-dioxo-2,3-dihydro-1lambda6-thiophen-3-yl)-2-[2-fluoro-4-(1H-pyrrol-1-yl)phenyl]-N-({4-[4-(hex-5-ynoyl)piperazine-1-carbonyl]phenyl}methyl)acetamide]
30 | 0.5 to 5 µM | CC(C)(O)c1cc(CN(C(=O)Cc2ccc(S(F)(F)(F)(F)F)cc2)[C@H]2C=CS(=O)(=O)C2)ccn1 [I-230, N-[(3S)-1,1-dioxo-2,3-dihydro-1lambda6-thiophen-3-yl]-N-{[2-(2-hydroxypropan-2-yl)pyridin-4-yl]methyl}-2-[4-(pentafluoro-lambda6-sulfanyl)phenyl]acetamide]
